Results: patent publication US20090247495A1, “CU[…] AND USES THEREOF” (priority 2007, published 2009)

Legend:
K562 = assay: Cell proliferation assay using SRB, K562; assay type: cell-based; details: Homo sapiens, 48 hours treatment
Procedure: Human leukemia cell lines CCRF-CEM, K562, MOLT-4, RPMI-8226 and SR, purchased from the National Cancer Institute (NCI), were cultured in RPMI 1640 medium supplemented with 5%(v/v) fetal Bovine […] and 100 units/ml penicillin and 100 units/ml streptomycin in a humidified 5% CO2 atmosphere at 37° C. • 6.1.2 Reagents and Antibodies
All 5 human leukemia cells were screened by the cell proliferation assay using SRB to quantitative cell protein mass following cucurbitacin B treatment. The experiments were repeated in triplicate. Appropriate number of cells (depends on the doubling time of cells) were seeded into a 96-well tissue culture plate and growth in the indicated medium in presence of different dosages of cucurbitacin B for 2 days. Afterwards 25 μl 80%TCA reagent was added into each well to fix the cells and the plates were incubated at 4° C. at least for 1 hour. Then the plates were washed with tap water and air dried. […] The plates were air dried and dissolved by 100 μl 1 OmMTrizma-base solution and the absorbance was measured at 515 nm using FLUOstar OPTIMA equipment. • 6.1.4 Flow Cytometry for Apoptosis Analysis
Appropriate number of cell density were seeded into a 96 well culture plate and treated with different doses of cucurbitacin B for 2 days. The growth inhibition effects of cucurbitacin B on the cells were detected using SRB.

Panc-1 = assay: MTT cell cytotoxicity assay, Panc-1; assay type: cell-based; details: Homo sapiens
Procedure: Three human pancreatic cancer cell lines (Panc-1, Panc 02.13, Panc 10.05) were purchased from American Type Culture Collection (ATCC, Manassas, Va., USA). Panc 02.13 and Panc 10.05 were grown in RPMI 1640 medium supplemented with 15% FBS, 4.5 g/L glucose, 10 mM HEPES, and 1.0 mM sodium pyruvate and 10 Units/ml human insulin; while PANC-1 was grown in Dulbecco's modified Eagle's medium supplemented with 10% FBS. They were maintained in a humidified 5% CO2 atmosphere at 37° C. and the culture medium was changed once in 2 days.
The cytotoxic effect of CuB on these three cancer cell lines were determined using MTT (3-[4,5-dimethylthiazol-2-yl]-2,5-diphenyl tetrazolium bromide) labeled cell cytotoxicity assay. A total of 1×10^4 cells were seeded into a 96-well plate for 24 hours prior to cucurbitacin B (CuB) treatment. They were then treated with different dosages of CuB for 48 hours. After the treatment, 20 μl of MTT (5 mg/ml) was added to each well and incubated for 4 hrs. Then the medium was discarded and 100 μl of dimethyl sulfoxide was added. The absorbance at 570 nm was then measured by FLUOstar OPTIMA equipment (BMG, LABTECH GmbH, Germany). The percentage of inhibition against different dosages of CuB were plotted using the Prism software and the 50% inhibition concentration (IC50) were obtained. […]

[1] = test system: Human GBM cell lines U87, T98G, U118, U343, U373; assay: MTT cell cytotoxicity assay, glioblastoma multiforme cell lines; assay type: cell-based; details: 48 hours, range over the cell lines
Procedure: Human GBM cell lines U87, T98G, U118, U343, U373 cell lines were maintained in Dulbecco's modified Eagle's medium (Gibco, BRL) with 10% fetal calf serum (Gemini Bio-Products, Calabasas, Calif., USA), 10 U/ml penicillin G and […] streptomycin. They were all incubated at 37° C. in 5% CO2 atmosphere.
The cytotoxic effect of CuB on these cancer cell lines were determined using MTT (3-[4,5-dimethylthiazol-2-yl]-2,5-diphenyl tetrazolium bromide) labeled cell cytotoxicity assay. A total of 1×10^4 cells were seeded into a 96-well plate for 24 hours prior to cucurbitacin B (CuB) treatment. They were then treated with different dosages of CuB for 48 hours. After the treatment, 20 μl of MTT (5 mg/ml) was added to each well and incubated for 4 hrs. Then the medium was discarded and 100 μl of dimethyl sulfoxide was added. The absorbance at 570 nm was then measured by a microplate reader and the 50% inhibition concentration (IC50) were obtained. Results for untreated control cells were set as 100%, with remaining data shown as a percentage of control. Data represented the mean±standard error of triplicate samples.

[2] = test system: Human cancer cell lines from the 59-NCI Cancer Cell Line Panel; assay type: cell-based
[3] = test system: Human liver cancer cell lines HepG2; assay: MTT cytotoxicity assay, matrix combination of CuB and Sb on liver cancer cells; assay type: cell-based; details: HepG2, 2 days, Sb 0 μM
Procedure: Human liver cancer cell lines HepG2 was purchased from American Type Culture Collection (ATCC, Manassas, Va., USA). The cells were cultured in RPMI 1640 medium supplemented with 5% (v/v) fetal bovine serum (FBS) and 100 units/ml penicillin and streptomycin (Invitrogen Life Technologies) in a humidified 5% CO2 atmosphere at 37° C.
A total of 1×10^4 cells were seeded into a 96-well plate for 24 hours prior to drug treatment. They were then treated with different dosages (a multiple of 20-fold of IC50 values) of CuB or Sb for 48 hours. After the treatment, 20 μl of MTT (5 mg/ml) was added to each well and incubated for 4 hrs. Then the medium was discarded and 100 μl of dimethyl sulfoxide was added. The absorbance at 570 nm was then measured by using FLUOstar OPTIMA equipment (BMG, LABTECH GmbH, Germany). The percentage of inhibition against different dosages of CuB or Sb were plotted using the Prism software and the 50% inhibition concentration (IC50) were obtained.
The cells were then treated for 2 days and the % inhibition of growth is determined.
The excess over Bliss additivism may be calculated using the following formula and shown in Table 4: • Bliss Additivism: Combined response=CuB+Sb−(CuB)(Sb) where each effect is expressed as fractional inhibition between 0 and 1 • Excess over additivism=observed response−combined response

Panc-1 and SW cells = assay: Annexin V / PI apoptosis by flow cytometry, pancreatic cells; assay type: cell-based, human; details: 48 h, increasing concentration
Procedure: Panc-1 and SW cells was incubated with vary doses of cucurbitacin B for 48 h at 37° C. At the end of treatment, cells were washed twice with cold PBS and resuspended at 2×10^6 cells/ml in 1×binding buffer. The cells were then stained with Annexin V and propidium iodide. All analyses were performed by flow cytometry.

CC(=O)OC(C)(C)/C=C/C(=O)[C@](C)(O)C1[C@H](O)C[C@@]2(C)C3CC=C4C(C[C@H](O)C(=O)C4(C)C)[C@]3(C)C(=O)C[C@]12C (stereo partly shown) [cucurbitacin B]
GI50 (K562): 15.6 nM | GI50 (Panc-1; MTT, 48 hours): 12400 nM | IC50 (Panc-1; read-out: IC50 (dose used for western blot)): 800 nM | GI50 [1]: 50 to 100 nM | cell lines with G2/M arrest [2]: 6 out of 18 | cell cycle effect ([2]; HL60 (TB), 48 hours): G2/M arrest and endoreduplication | % inhibition ([3]; CuB 0.056 μM): 25.89% | Excess over Bliss additivism ([3]; CuB 0.056 μM): 0 | Excess over Highest Single Agent Model ([3]; CuB 0.056 μM): 0 | % inhibition ([3]; CuB 0.167 μM): 41.93% | Excess over Bliss additivism ([3]; CuB 0.167 μM): 0 | Excess over Highest Single Agent Model ([3]; CuB 0.167 μM): 0 | % inhibition ([3]; CuB 0.5 μM): 37.94% | Excess over Bliss additivism ([3]; CuB 0.5 μM): 0 | Excess over Highest Single Agent Model ([3]; CuB 0.5 μM): 0 | % inhibition ([3]; CuB 1.5 μM): 39.01% | Excess over Bliss additivism ([3]; CuB 1.5 μM): 0 | Excess over Highest Single Agent Model ([3]; CuB 1.5 μM): 0 | % inhibition ([3]; CuB 4.5 μM): 36.57% | Excess over Bliss additivism ([3]; CuB 4.5 μM): 0 | Excess over Highest Single Agent Model ([3]; CuB 4.5 μM): 0 | apoptotic cells (Panc-1 and SW cells): the percentage of apoptic cells rise
